Results as given in patent US6689357B2, “Non-obligate predatory bacterium Burkholderia casidae and uses thereof” (Virginia Tech Intellectual Properties, Inc., priority 1997, dated 2004).
Values after ≈ are worked out from the molar mass of the structure shown.

System: B. casidae strain 2.2N
Assay: microbe, parasite or virus in culture
Assay type: cell-based, Burkholderia casidae
Settings: for MIC: Burkholderia, 2.2N, read-out: Minimal Inhibitory Concentration; for strain 2.2N resistant or susceptible to the antibiotic: Sceptor Pseudomonas/Resistant MIC Panel; for Minimal Inhibitory Concentration: against B. casidae strain 2.2N

Molecule	MIC	strain 2.2N resistant or susceptible to the antibiotic	Minimal Inhibitory Concentration
CO/N=C(\C(=O)N[C@@H]1C(=O)N2C(C(=O)O)=C(CSc3nc(=O)c(=O)[nH]n3C)CS[C@H]12)c1csc(N)n1 [Ceftriaxone]	128 µg/mL (≈ 231 µM)	susceptible	–
CCN1CCN(C(=O)N[C@@H](C(=O)N[C@@H]2C(=O)N3C(C(=O)O)=C(CSc4nnnn4C)CS[C@H]23)c2ccc(O)cc2)C(=O)C1=O [Cefoperazone]	> 16 µg/mL	resistant	–
O=C(O)c1cn(C2CC2)c2cc(N3CCNCC3)c(F)cc2c1=O [ciprofloxacin]	–	susceptible	–
Tricarcillin/Clavulinic Acid	–	resistant	>128/2
C[C@@H](O)[C@H]1C(=O)N2C(C(=O)O)=C(SCCN=CN)C[C@H]12 [Imipenem]	16 µg/mL (≈ 53.4 µM)	–	–
NC[C@H]1O[C@H](O[C@H]2[C@H](O)[C@@H](O[C@H]3O[C@H](CO)[C@@H](O)[C@H](N)[C@H]3O)[C@H](N)C[C@@H]2N)[C@H](N)C[C@@H]1O [Tobramycin]	> 16 µg/mL	resistant	–
CC(C)(O/N=C(\C(=O)N[C@@H]1C(=O)N2C(C(=O)[O-])=C(C[n+]3ccccc3)CS[C@H]12)c1csc(N)n1)C(=O)O [Ceftazimine]	–	susceptible	8 micrograms/ml
CO/N=C(\C(=O)N[C@@H]1C(=O)N2C(C(=O)O)=CCS[C@H]12)c1csc(N)n1 [Ceftizoxime]	16 µg/mL (≈ 41.7 µM)	susceptible	–
Trimethoprim/Sulfamethoxazole	–	susceptible	4/76
Gentamycin	–	resistant	>16 micrograms/ml
CO/N=C(\C(=O)N[C@@H]1C(=O)N2C(C(=O)O)=C(COC(C)=O)CS[C@H]12)c1csc(N)n1 [Cefotaxime]	64 µg/mL (≈ 141 µM)	susceptible	–
NCC[C@H](O)C(=O)N[C@@H]1C[C@H](N)[C@@H](O[C@H]2O[C@H](CN)[C@@H](O)[C@H](O)[C@H]2O)[C@H](O)[C@H]1O[C@H]1O[C@H](CO)[C@@H](O)[C@H](N)[C@H]1O [Amikacin]	> 64 µg/mL	resistant	–
CN(C)[C@@H]1C(O)=C(C(N)=O)C(=O)[C@@]2(O)C(O)=C3C(=O)c4c(O)cccc4[C@@](C)(O)[C@H]3C[C@@H]12 [Tetracycline]	> 8 µg/mL	–	–
